For 35 compounds, CC50 and EC50 results are on record in patent US20120122848A1, “(+)-3-HYDROXYMORPHINAN DERIVATIVES AS NEUROPROTECTANTS” (GREEN CROSS CORPORATION, priority 2009, published 2012).

Molecules are shown by their SMILES. Counter-ions that a name gives are not always drawn.

Data set [1] is described as follows: Cell cytotoxicity test: protection of HT22 cells against glutamate toxicity (EC50) and cytotoxicity of the compounds (CC50), MTT. The class given is cell-based, mouse. The following applies: mouse, HT22 cells (mouse hippocampal neuron). How it is done: (§1) HT22 cells (mouse hippocampal neuron, Salk Institute and KRIBB) were plated in a 96-well plate at a density of 3×10^3 cells/well for 16 hrs before treatment. The cells were treated with five millimolar glutamate and various concentrations of the inventive compounds and incubated for 24 hrs in a growth media (DMEM with 10% FBS and 1% penicillin streptomycin). Then, the cells were treated with 3-(4,5-dimethylthiazol-2-yl)-2,5-diphenyltetrazolium bromide (MTT, Sigma®) for 4 hrs and absorbance of each well was measured with a plate reader at a wavelength of 450 nm. [Da-Qing, et. al., Anti-oxidant and anti-inflammatory activities of macelignan in murine hippocampal cell line and primary culture of rat microglia cells, BBRC, 2005, 331, 1264-1269].
(§2) In Table 1, EC50 is neuroprotective effect against glutamate toxicity and CC50 is cytotoxicity of the compounds. The EC50 values were statistically analyzed using Prizm® (GraphPad Software Inc., San Diego, Calif., USA).

Data set [2] concerns HT22 cells (mouse hippocampal neuron). Described as above. The class given is cell-based. The following applies: Mus musculus, HT-22, five millimolar glutamate, 24 hrs, read-out: EC50 (neuroprotective effect against glutamate toxicity). Here is the method:
as §1, §2

In general, CC50 refers to the concentration that lowers cell viability or growth by half. Low values mean harm at low concentration, high ones better tolerance by the cells. Usually EC50 stands for the concentration at which the effect is half-maximal.

`Oc1cc2c(cc1Nc1ccc(Cl)cc1)C[C@@H]1NCC[C@]23CCCC[C@H]13` [Example 25, (+)-2-(4-Chlorophenylamino)-3-hydroxymorphinan TFA salt] returned a 50% cytotoxic concentration (CC50) at 24 h in data set [1] of 1870 nM. In addition, the EC50 in data set [2] is 61 nM.
For `Oc1ccccc1Nc1cc2c(cc1O)[C@]13CCCC[C@@H]1[C@H](C2)NCC3` [Example 43, (+)-3-Hydroxy-2-(2-hydroxyphenylamino)morphinan TFA salt] the same measures were 10400 nM and 2.71 nM.
`Oc1cc2c(cc1Nc1ccc(Br)cc1)C[C@@H]1NCC[C@]23CCCC[C@H]13` [Example 33, (+)-2-(4-Bromophenylamino)-3-hydroxymorphinan TFA salt]: the midpoint of cytotoxicity in data set [1], the CC50 at 24 h, lay at 1670 nM. Moreover, the EC50 in data set [2] stood at 69.7 nM.
The matching figures for `CC(C)(C)C(=O)Nc1ccccc1Nc1cc2c(cc1O)[C@]13CCCC[C@@H]1[C@H](C2)NCC3` [Example 115, (+)-3-Hydroxy-2-(2-(pivalamido)phenylamino)morphinan TFA salt]: 53600 nM and 2500 nM.
Regarding `Oc1cccc(Nc2cc3c(cc2O)[C@]24CCCC[C@@H]2[C@H](C3)NCC4)c1` [Example 44, (+)-3-Hydroxy-2-(3-hydroxyphenylamino)morphinan TFA salt], the midpoint of cytotoxicity in data set [1], the CC50 at 24 h, lay at 75000 nM. Moreover, the EC50 in data set [2] was found to be 802 nM.
In data set [1], `Oc1cc2c(cc1Nc1ccccc1OC(F)(F)F)C[C@@H]1NCC[C@]23CCCC[C@H]13` [Example 59, (+)-3-Hydroxy-2-(2-(trifluoromethoxy)phenylamino)morphinan TFA salt] came in with a CC50 at 24 h of 1700 nM. For the same compound, the EC50 in data set [2] worked out at 69.3 nM.
`Oc1cc2c(cc1N1CCCC1)C[C@@H]1NCC[C@]23CCCC[C@H]13` [Example 22, (+)-3-Hydroxy-2-(pyrrolidin-1-yl)morphinan TFA salt] returned a CC50 at 24 h in data set [1] of 80500 nM. In data set [2], the EC50 is 638 nM.
For `Oc1cc2c(cc1Nc1ccc3ncccc3c1)C[C@@H]1NCC[C@]23CCCC[C@H]13` [Example 68, TFA salt] the same measures were 8500 nM and 1720 nM.
In the case of `CCN(CC)c1ccccc1Nc1cc2c(cc1O)[C@]13CCCC[C@@H]1[C@H](C2)NCC3` [Example 129, (+)-2-(2-(Diethylamino)phenylamino)-3-hydroxymorphinan TFA salt], the half-maximal cytotoxic concentration (CC50) at 24 h in data set [1] was 1600 nM. Moreover, the EC50 in data set [2] was found to be 43.9 nM.
The matching figures for `Oc1cc2c(cc1Nc1c(O)cccc1O)C[C@@H]1NCC[C@]23CCCC[C@H]13` [Example 47, (+)-2-(2,6-Dihydroxyphenylamino)-3-hydroxymorphinan TFA salt]: 9000 nM and 275 nM.
For `Oc1ccc(Nc2cc3c(cc2O)[C@]24CCCC[C@@H]2[C@H](C3)NCC4)c(O)c1` [Example 45, (+)-2-(2,4-Dihydroxyphenylamino)-3-hydroxymorphinan TFA salt] the same measures were 40900 nM and 73.1 nM.
In data set [1], `Oc1cc2c(cc1Nc1ccc3c(c1)CCCC3)C[C@@H]1NCC[C@]23CCCC[C@H]13` [Example 71, (+)-3-Hydroxy-24(5,6,7,8-tetrahydronaphthalen-2-ybamino)morphinan TFA salt] yielded a CC50 at 24 h of 1600 nM. Moreover, the EC50 in data set [2] turned out to be 36.2 nM.
For `COc1ccc(Nc2cc3c(cc2O)[C@]24CCCC[C@@H]2[C@H](C3)NCC4)cc1OC` [Example 63, (+)-2-(3,4-Dimethoxyphenylamino)-3-hydroxymorphinan TFA salt] the same measures were 10100 nM and 28.9 nM.
The matching figures for `Cc1cc(C)cc(Nc2cc3c(cc2O)[C@]24CCCC[C@@H]2[C@H](C3)NCC4)c1` [Example 27, (+)-2-(3,5-Dimethylphenylamino)-3-hydroxymorphinan TFA salt]: 1520 nM and 27.3 nM.
For `CCCCS(=O)(=O)Nc1ccccc1Nc1cc2c(cc1O)[C@]13CCCC[C@@H]1[C@H](C2)NCC3` [Example 112, (+)-2-(2-(Butanesulfonamido)phenylamino)-3-hydroxymorphinan TFA salt] the same measures were 20000 nM and 55.6 nM.
`CC(=O)Nc1ccc(Nc2cc3c(cc2O)[C@]24CCCC[C@@H]2[C@H](C3)NCC4)cc1` [Example 116, TFA salt] returned a CC50 at 24 h in data set [1] of 36500 nM. Moreover, the concentration for a half-maximal effect (EC50) in data set [2] is 2840 nM.
For `CC(C)Cc1cc2c(cc1O)[C@]13CCCC[C@@H]1[C@H](C2)NCC3` [Example 81, (+)-3-Hydroxy-2-isobutylmorphinan TFA salt] the same measures were 11300 nM and 1430 nM.
For the compound `CC(C)c1ccc(Nc2cc3c(cc2O)[C@]24CCCC[C@@H]2[C@H](C3)NCC4)cc1` [Example 54, (+)-3-Hydroxy-2-(4-isopropylphenylamino)morphinan TFA salt], in data set [1], the midpoint of cytotoxicity, the CC50 at 24 h, lay at 1500 nM. Moreover, the half-maximal effective concentration (EC50) in data set [2] turned out to be 59.8 nM.
The matching figures for `Oc1cc2c(cc1Nc1ccc(C(F)(F)F)cc1)C[C@@H]1NCC[C@]23CCCC[C@H]13` [Example 35, (+)-3-Hydroxy-2-(4-(trifluoromethyl)phenylamino)morphinan TFA salt]: 52800 nM and 2590 nM.
For `CC(C)(C)Nc1cc2c(cc1O)[C@]13CCCC[C@@H]1[C@H](C2)NCC3` [Example 20, (+)-2-(tert-Butylamino)-3-hydroxymorphinan TFA salt] the same measures were over 100000 nM and 423 nM.
The matching figures for `CCOCCNc1cc2c(cc1O)[C@]13CCCC[C@@H]1[C@H](C2)NCC3` [Example 99, (+)-2-(2-Ethoxyethylamino)-3-hydroxymorphinan TFA salt]: over 100000 nM and 10400 nM.
For `Oc1cc2c(cc1Nc1ccccc1Cl)C[C@@H]1NCC[C@]23CCCC[C@H]13` [Example 48, (+)-2-(2-Chlorophenylamino)-3-hydroxymorphinan TFA salt], in data set [1], the CC50 at 24 h stood at 2700 nM. The 50% effective concentration (EC50) in data set [2] stood at 99.1 nM.
The matching figures for `Oc1cc2c(cc1Nc1cccc(Cl)c1O)C[C@@H]1NCC[C@]23CCCC[C@H]13` [Example 55, (+)-2-(3-Chloro-2-hydroxyphenylamino)-3-hydroxymorphinan TFA salt]: 9200 nM and 101 nM.
The compound `Oc1cc2c(cc1Nc1ccc(F)cc1)C[C@@H]1NCC[C@]23CCCC[C@H]13` [Example 29, (+)-2-(4-Fluorophenylamino)-3-hydroxymorphinan TFA salt] yielded a CC50 at 24 h in data set [1] of 19900 nM. For the same compound, the concentration for a half-maximal effect (EC50) in data set [2] was 33.5 nM.
In data set [1], `CC1CCN(c2cc3c(cc2O)[C@]24CCCC[C@@H]2[C@H](C3)NCC4)CC1` [Example 19, (+)-3-Hydroxy-2-(4-methylpiperidin-1-yl)morphinan TFA salt] returned a CC50 at 24 h of 8040 nM. In addition, the EC50 in data set [2] is 272 nM.
In the case of `CNc1cc2c(cc1O)[C@]13CCCC[C@@H]1[C@H](C2)NCC3` [Example 18, (+)-3-Hydroxy-2-(methylamino)morphinan TFA salt], the CC50 at 24 h in data set [1] amounted to 59000 nM. Besides, the EC50 in data set [2] is 193 nM.
For `Oc1cc2c(cc1Nc1cccc(F)c1O)C[C@@H]1NCC[C@]23CCCC[C@H]13` [Example 57, (+)-2-(3-Fluoro-2-hydroxyphenylamino)-3-hydroxymorphinan TFA salt] the same measures were 5500 nM and 199 nM.
Compound `COC(=O)c1ccccc1Nc1cc2c(cc1O)[C@]13CCCC[C@@H]1[C@H](C2)NCC3` [Example 108, (+)-3-Hydroxy-2-(2-(methoxycarbonyl)phenylamino)morphinan TFA salt] came in with a CC50 at 24 h in data set [1] of over 100000 nM. Also, the EC50 in data set [2] came to 7960 nM.
The compound `COc1ccccc1Nc1cc2c(cc1O)[C@]13CCCC[C@@H]1[C@H](C2)NCC3` [Example 42, (+)-3-Hydroxy-2-(2-methoxyphenylamino)morphinan TFA salt] returned a cytotoxic concentration (CC50) at 24 h in data set [1] of 11400 nM. The EC50 in data set [2] is 95.9 nM.
For `CC(C)Nc1cc2c(cc1O)[C@]13CCCC[C@@H]1[C@H](C2)NCC3` [Example 87, (+)-3-Hydroxy-2-isopropylaminomorphinan TFA salt] the same measures were 39500 nM and 35.4 nM.
In data set [1], `Cc1ccccc1Nc1cc2c(cc1O)[C@]13CCCC[C@@H]1[C@H](C2)NCC3` [Example 41, (+)-3-Hydroxy-2-(2-methylphenylamino)morphinan TFA salt] displayed a CC50 at 24 h of 6900 nM. In data set [2], the EC50 was determined as 17.8 nM.
The matching figures for `CCCN(CCC)c1cc2c(cc1O)[C@]13CCCC[C@@H]1[C@H](C2)NCC3` [Example 96, (+)-2-(Dipropylamino)-3-hydroxymorphinan TFA salt]: 3490 nM and 178 nM.
In data set [1], `CC1(c2cc3c(cc2O)[C@]24CCCC[C@@H]2[C@H](C3)NCC4)CCCCC1` [Example 105, (+)-3-Hydroxy-2-(1-methylcyclohexyl)morphinan TFA salt] yielded a CC50 at 24 h of 2240 nM. Also, the EC50 in data set [2] stood at 594 nM.
For `CN(c1ccc(F)cc1)c1cc2c(cc1O)[C@]13CCCC[C@@H]1[C@H](C2)NCC3` [Example 124, (+)-2-(4-Fluorophenyl(methyl)amino)-3-hydroxymorphinan TFA salt] the same measures were 6400 nM and 371 nM.
In turn, `Oc1cc2c(cc1Nc1ccccc1-c1ccccc1)C[C@@H]1NCC[C@]23CCCC[C@H]13` [Example 60, (+)-2-(Biphenyl-2-ylamino)-3-hydroxymorphinan TFA salt] came in with a CC50 at 24 h in data set [1] of 1400 nM. Besides, the EC50 in data set [2] was found to be 19 nM.
